# Laboratory results as given in patent US7803930B2, “Antisense modulation of apolipoprotein B-expression” (Isis Pharmaceuticals, Inc., priority 2002, dated 2010).
# In the oligonucleotide strings, read from the 5' end, every base follows the letter of its sugar. An asterisk marks phosphorothioate; unmarked linkages are phosphodiester. Other units and linkages are bracketed, terminal groups are in braces. A string of capitals states the bases alone. e = 2'-O-(2-methoxyethyl) (MOE); [5mC] = 5-methylcytosine; d = 2'-deoxy (DNA)
# What was measured:
# [1] = test system: rabbit apolipoprotein B mRNA; assay: Inhibition of rabbit apolipoprotein B mRNA levels in primary rabbit hepatocytes, real-time PCR; type: cell-based; parameters: % INHIB of rabbit apolipoprotein B mRNA levels: concentration or dose not given beside the values; details: for Percent Inhibition of rabbit apolipoprotein B mRNA levels: averages from two experiments
# Description: Primary rabbit hepatocytes were purchased from Invitro Technologies (Gaithersburg, Md.) and maintained in Dulbecco's modified Eagle's medium (Gibco). When purchased, the cells had been seeded into 96-well plates for use in RT-PCR analysis and were confluent.
# In accordance with the present invention, a series of oligonucleotides was designed to target different regions of rabbit apolipoprotein B, using published sequences (GenBank accession number X07480.1, incorporated herein as SEQ ID NO: 808, GenBank accession number M17780.1, incorporated herein as SEQ ID NO: 809, and a sequence was derived using previously described primers (Tanaka, Journ. Biol. Chem., 1993,268, 12713-12718) representing an mRNA of the rabbit apolipoprotein B, incorporated herein as SEQ ID NO: 810). “Target site” indicates the first (5′-most) nucleotide number on the particular target sequence to which the oligonucleotide binds. All compounds in Table 21 are chimeric oligonucleotides (“gapmers”) 20 nucleotides in length, composed of a central “gap” region consisting of ten 2′-deoxynucleotides, which is flanked on both sides (5′ and 3′ directions) by five-nucleotide “wings”. The wings are composed of 2′-methoxyethyl (2′-MOE)nucleotides. The internucleoside (backbone) linkages are phosphorothioate (P═S) throughout the oligonucleotide. All cytidine residues are 5-methylcytidines. The compounds were analyzed for their effect on rabbit apolipoprotein B mRNA levels in primary rabbit hepatocytes by quantitative real-time PCR as described in other examples herein. Primary rabbit hepatocytes were treated with 150 nM of the compounds in Table 21. For rabbit apolipoprotein B the PCR primers were: • forward primer: AAGCACCCCCAATGTCACC (SEQ ID NO: 811) • reverse primer: […] (SEQ ID NO: 812) and the PCR probe was: FAM-[…]-TAMRA (SEQ ID NO: 813) where FAM (PE-Applied Biosystems, Foster City, Calif.) is the fluorescent reporter dye) and TAMRA (PE-Applied Biosystems, Foster City, Calif.) is the quencher dye. Data are averages from two experiments. If present, “N.D.” indicates “no data”.
# In accordance with the present invention, a subset of the antisense oligonuclotides in Example 42 was further investigated in dose-response studies. Treatment doses were 10, 50, 150 and 300 nM. ISIS 233160 (SEQ ID NO: 824), ISIS 233166 (SEQ ID NO: 830), ISIS 233172 (SEQ ID NO: 835), ISIS 233175 (SEQ ID NO: 838), and ISIS 233183 (SEQ ID NO: 846) were analyzed for their effect on rabbit apolipoprotein B mRNA levels in primary rabbit hepatocytes by quantitative real-time PCR as described in other examples herein.
# [2] = test system: human apolipoprotein B mRNA; assay: Inhibition of human apolipoprotein B mRNA levels in HepG2 cells, quantitative real-time PCR; type: cell-based; details: HepG2 cells; 50 or 150 nM, 24 hours
# Summary of the method: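 Apolipoprotein B transcript was quantified by one-step TaqMan RT-PCR, normalized to GAPDH or RiboGreen RNA, and expressed as percent inhibition against an untreated-sample standard curve. HepG2 cells were harvested 16-24 h after oligonucleotide exposure, which was delivered with 3.75 μg/mL Lipofectin over 4-7 h at 80% confluency.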
Substance,% INHIB of rabbit apolipoprotein B mRNA levels [1],also measured
233149 (antisense eT*eG*e[5mC]*eT*eT*dG*dG*dA*dG*dA*dA*dG*dG*dT*dA*eA*eG*eA*eT*e[5mC]) [compound 233149],0%,–
233150 (antisense eG*e[5mC]*eG*eT*eT*dG*dT*d[5mC]*dT*d[5mC]*d[5mC]*dG*dA*dT*dG*eT*eT*e[5mC]*eT*eG) [compound 233150],20%,–
233151 (antisense eT*eA*eA*eT*e[5mC]*dA*dT*dT*dA*dA*d[5mC]*dT*dT*dG*d[5mC]*eT*eG*eT*eG*eG) [compound 233151],20%,–
233152 (antisense eT*e[5mC]*eA*eG*e[5mC]*dA*d[5mC]*dG*dT*dA*dG*d[5mC]*dA*dA*dT*eG*e[5mC]*eA*eT*eT) [compound 233152],0%,–
233153 (antisense eG*e[5mC]*e[5mC]*eT*eG*dA*dT*dA*d[5mC]*dT*d[5mC]*dA*dG*d[5mC]*dA*e[5mC]*eG*eT*eA*eG) [compound 233153],0%,–
233154 (antisense e[5mC]*eA*eA*eT*eT*dG*dA*dA*dT*dG*dT*dA*d[5mC]*dT*d[5mC]*eA*eG*eA*eT*eA) [compound 233154],18%,–
233155 (antisense eA*e[5mC]*e[5mC]*eT*e[5mC]*dA*dG*dT*dG*dA*d[5mC]*dT*dT*dG*dT*eA*eA*eT*e[5mC]*eA) [compound 233155],47%,–
233156 (antisense e[5mC]*eA*e[5mC]*eT*eG*dG*dA*dA*dA*d[5mC]*dT*dT*dG*dT*d[5mC]*eT*e[5mC]*eT*e[5mC]*e[5mC]) [compound 233156],23%,–
233157 (antisense eA*eG*eT*eA*eG*dT*dT*dA*dG*dT*dT*dT*d[5mC]*dT*d[5mC]*e[5mC]*eT*eT*eG*eG) [compound 233157],0%,–
233159 (antisense eT*e[5mC]*eA*eG*eT*dG*d[5mC]*d[5mC]*d[5mC]*dA*dA*dG*dA*dT*dG*eT*e[5mC]*eA*eG*e[5mC]) [compound 233159],0%,–
233160 (antisense eA*eT*eT*eG*eG*dA*dA*dT*dA*dA*dT*dG*dT*dA*dT*e[5mC]*e[5mC]*eA*eG*eG) [compound 233160],81%,Percent Inhibition of rabbit apolipoprotein B mRNA levels ([1]; 10 nM): 33%; Percent Inhibition of rabbit apolipoprotein B mRNA levels ([1]; 50 nM): 67%; Percent Inhibition of rabbit apolipoprotein B mRNA levels ([1]; 150 nM): 74%; Percent Inhibition of rabbit apolipoprotein B mRNA levels ([1]; 300 nM): 80%
233161 (antisense eT*eT*eG*eG*e[5mC]*dA*dT*dT*dA*dT*d[5mC]*d[5mC]*dA*dA*dT*eG*e[5mC]*eA*eG*eT) [compound 233161],28%,–
233162 (antisense eG*eT*eT*eG*e[5mC]*d[5mC]*dT*dT*dG*dT*dG*dA*dG*d[5mC]*dA*eG*e[5mC]*eA*eG*eT) [compound 233162],0%,–
233163 (antisense eA*eT*eT*eG*eT*dG*dA*dG*dT*dG*dG*dA*dG*dA*dT*eA*e[5mC]*eT*eT*e[5mC]) [compound 233163],80%,–
233164 (antisense e[5mC]*eA*eT*eA*eT*dG*dT*d[5mC]*dT*dG*dA*dA*dG*dT*dT*eG*eA*eG*eA*e[5mC]) [compound 233164],8%,–
233165 (antisense eG*eT*eA*eG*eA*dT*dA*d[5mC]*dT*d[5mC]*d[5mC]*dA*dT*dT*dT*eT*eG*eG*e[5mC]*e[5mC]) [compound 233165],0%,–
233166 (antisense eG*eG*eA*eT*e[5mC]*dA*d[5mC]*dA*dT*dG*dA*d[5mC]*dT*dG*dA*eA*eT*eG*e[5mC]*eT) [compound 233166],82%,Percent Inhibition of rabbit apolipoprotein B mRNA levels ([1]; 10 nM): 66%; Percent Inhibition of rabbit apolipoprotein B mRNA levels ([1]; 50 nM): 81%; Percent Inhibition of rabbit apolipoprotein B mRNA levels ([1]; 150 nM): 79%; Percent Inhibition of rabbit apolipoprotein B mRNA levels ([1]; 300 nM): 73%

Substance,% INHIB of rabbit apolipoprotein B mRNA levels [1],also measured
233167 (antisense eT*e[5mC]*eA*eA*eG*d[5mC]*dT*dG*dG*dT*dT*dG*dT*dT*dG*e[5mC]*eA*e[5mC]*eT*eG) [compound 233167],28%,–
233168 (antisense eG*eG*eA*e[5mC]*eT*dG*dT*dA*d[5mC]*d[5mC]*dT*d[5mC]*dA*dA*dG*e[5mC]*eT*eG*eG*eT) [compound 233168],0%,–
233169 (antisense eG*e[5mC]*eT*e[5mC]*eA*dT*dT*d[5mC]*dT*d[5mC]*d[5mC]*dA*dG*d[5mC]*dA*eT*e[5mC]*eA*eG*eG) [compound 233169],14%,–
233170 (antisense eT*eT*eG*eA*eT*d[5mC]*dT*dA*dT*dA*dA*dT*dA*d[5mC]*dT*eA*eG*e[5mC]*eT*eA) [compound 233170],23%,–
233173 (antisense eT*eT*eG*eT*eG*dT*dT*d[5mC]*d[5mC]*dT*dT*dG*dA*dA*dG*e[5mC]*eG*eG*e[5mC]*e[5mC]) [compound 233173],3%,–
233174 (antisense eT*eG*eT*eG*e[5mC]*dA*d[5mC]*dG*dG*dA*dT*dA*dT*dG*dA*eT*eA*eA*e[5mC]*eG) [compound 233174],21%,–
233176 (antisense eG*eA*eA*eA*eT*d[5mC]*dT*dG*dG*dA*dA*dG*dA*dG*dA*eG*eA*e[5mC]*e[5mC]*eT) [compound 233176],62%,–
233177 (antisense eG*eT*eA*eG*e[5mC]*dT*dT*dT*d[5mC]*d[5mC]*d[5mC]*dA*dT*d[5mC]*dT*eA*eG*eG*e[5mC]*eT) [compound 233177],0%,–
233178 (antisense eG*eA*eT*eA*eA*d[5mC]*dT*d[5mC]*dT*dG*dT*dG*dA*dG*dG*eG*eT*eA*eG*e[5mC]) [compound 233178],0%,–
233179 (antisense eA*eT*eG*eT*eT*dG*d[5mC]*d[5mC]*d[5mC]*dA*dT*dG*dG*d[5mC]*dT*eG*eG*eA*eA*eT) [compound 233179],65%,–
233180 (antisense eA*eA*eG*eA*eT*dG*d[5mC]*dA*dG*dT*dA*d[5mC]*dT*dA*d[5mC]*eT*eT*e[5mC]*e[5mC]*eA) [compound 233180],13%,–
233181 (antisense eG*e[5mC]*eA*e[5mC]*e[5mC]*d[5mC]*dA*dG*dA*dA*dT*d[5mC]*dA*dT*dG*eG*e[5mC]*e[5mC]*eT*eG) [compound 233181],0%,–
233182 (antisense e[5mC]*eT*eT*eG*eA*dT*dA*d[5mC]*dT*dT*dG*dG*dT*dA*dT*e[5mC]*e[5mC]*eA*e[5mC]*eA) [compound 233182],59%,–
233183 (antisense e[5mC]*eA*eG*eT*eG*dT*dA*dA*dT*dG*dA*dT*d[5mC]*dG*dT*eT*eG*eA*eT*eT) [compound 233183],88%,Percent Inhibition of rabbit apolipoprotein B mRNA levels ([1]; 10 nM): 30%; Percent Inhibition of rabbit apolipoprotein B mRNA levels ([1]; 50 nM): 71%; Percent Inhibition of rabbit apolipoprotein B mRNA levels ([1]; 150 nM): 81%; Percent Inhibition of rabbit apolipoprotein B mRNA levels ([1]; 300 nM): 80%
233184 (antisense eT*eA*eA*eA*eG*dT*d[5mC]*d[5mC]*dA*dG*d[5mC]*dA*dT*dT*dG*eG*eT*eA*eT*eT) [compound 233184],69%,–
"ISIS 332770: ISIS 301012 derivative with a single thymidine to cytosine substitution in the center of the oligonucleotide (GCCTCAGTCTTCTTCGCACC; sugars from the 5' end e5 d10 e5, all phosphorothioate, methylation of C not given here)",–,potency relative to ISIS 301012 (fold less potent) [2]: 3 fold
